Experiments:
[1] = test system: tomato seeds; test: Seed germination experiment on tomato; format: in vivo, Solanum lycopersicum CV. Zhefen 202; conditions: 50 μM
Description: (§1) The seeds of Arabidopsis wild type (Arabidopsis thaliana L. Columbia, Col-0 ecotype) were provided by the lab of plant quality & safety biology in China Jiliang university. The commercial tomato seeds (Solanum lycopersicum CV. Zhefen 202) were provided by Zhejiang Academy of Agricultural Sciences.
(§2) The 4-(Phenylethynyl) benzoic acid solutions were prepared as follows: 22.9 mg 4-(Phenylethynyl) benzoic acid was weighted and dissolved in 1 mL DMSO to make the 100 mM 4-(Phenylethynyl) benzoic acid mother solution. The working solutions applied were prepared by diluting the 4-(phenylethynyl) benzoic acid mother solution with water. For example, the 4-(Phenylethynyl) benzoic acid treatment solutions at the concentrations of 1 μM, 10 μM, and 50 μM were prepared by diluting 1 μL of the 100 mM 4-(phenylethynyl) benzoic acid mother solution to 100 mL, 10 mL, or 2 mL with water. DMSO was supplemented to a final concentration of 0.05% (V:V).
(§3) 0.05% DMSO water solution then used as a control solution.
For tomato, 80 seeds were sowed on two layers of filter papers in a 6-cm-diameter Petri dish with germination liquids. 4-(Phenylethynyl) benzoic acid treatment solution at the concentration of 50 μM and 0.05% DMSO water solution (Control) were used as the germination liquids. There were three replicates for each treatment. After germination for 24 h, 36 h, 48 h, 60 h, 72 h, 84 h in a growth chamber (25° C.), the germination rate (the proportion of the total number of the seeds germinated corresponding to each time point after the start of the germination experiment to the total number of seeds to be tested) was calculated, respectively. The germination rate at 48 h was adopted as the germination potential (the proportion of the total number of the seeds germinated corresponding to 48 h after the start of the germination experiment to the total number of seeds to be tested).

[2] = test system: Arabidopsis seeds; test: Seed germination experiment on Arabidopsis; format: in vivo, Arabidopsis thaliana L. Columbia, Col-0 ecotype; conditions: for Germination potential/% (48 h): control 45.31 ± 6.63; for Ultimate germination rate/%: control 88.32 ± 1.15
Description: as §1, §2, §3
Arabidopsis seeds were soaked in 4-(Phenylethynyl) benzoic acid treatment solutions at the concentrations of 1 μM, 10 μM, and 50 μM for 3 days under dark at 4° C., respectively. Seeds soaked in the 0.05% DMSO water solution were used as control. On the fourth day, Seeds were transformed to light at 25° C. in 2-cm-diameter Petri dishes with two layers of filter papers. Different concentrations of 4-(Phenylethynyl) benzoic acid treatment solutions were added as germination liquids. 0.05% DMSO water solution was used as control. 30-50 seeds were placed on the moist filter paper in a Petri dish. There were three replicates for each treatment. After germination for 30 h, 42 h, 48 h, and 66 h in a growth chamber (25° C.), the germination rate (the proportion of the total number of the seeds germinated corresponding to each time point after the start of the germination experiment to the total number of seeds to be tested) was calculated, respectively. The germination rate at 48 h was adopted as the germination potential (the proportion of the total number of the seeds germinated corresponding to 48 h after the start of the germination experiment to the total number of seeds to be tested).

[3] = test system: rice radicle; test: Rice radicle elongation; format: in vivo, Oryza sativa L. Datian Nip
Description: Rice cultivar (Oryza sativa L. Datian Nip) was provided by Zhejiang Academy of Agricultural Sciences.
Every 1 μL 4-(Phenylethynyl) benzoic acid mother solution in Example 1 was diluted with water to 2 mL or 500 μL to prepare 50 μM or 200 μM 4-(Phenylethynyl) benzoic acid treatment solutions. 0.05% DMSO water solution was used as the control solution for 50 μM 4-(Phenylethynyl) benzoic acid treatment solution and 0.2% DMSO water solution was used as the control solution for 200 μM 4-(Phenylethynyl) benzoic acid treatment solution respectively.
A volume of 10 ml 4-(Phenylethynyl) benzoic acid treatment solutions at various concentrations were added to 9-cm-diameter Petri dishes with two layers of filter papers. 100 seeds were placed on the moist filter paper in a Petri dish. 0.05% DMSO water solution was used as control for 50 μM 4-(Phenylethynyl) benzoic acid treatment solution. 0.2% DMSO water solution was used as control for 200 μM 4-(Phenylethynyl) benzoic acid treatment solution. There were three replicates for each treatment. Seeds were germinated under light at 28° C. The seeds that germinated between the second and the third day after imbibition were chosen and their radicle length were measured on the fifth day.

[4] = test system: stomata of tomato leaves; test: Stomata closure in abaxial epidermal strips of tomato; format: cell-based, Solanum lycopersicum CV. Zhefen 202; conditions: 50 μM, 3 hours, compared to the control
Description: The commercial tomato seeds (Solanum lycopersicum CV. Zhefen 202) were provided by Zhejiang Academy of Agricultural Sciences.
The concentration of 4-(Phenylethynyl) benzoic acid used in this example was 50 μM. Every 1 μL of the 100 mM 4-(Phenylethynyl) benzoic acid mother solution in Example 1 was diluted to 2 mL with MES-KCl buffer (10 mM MES, 50 mM KCl, pH 6.15). 0.5% Tween-80 (V:V) was added to increase the solubility and stability of 4-(Phenylethynyl) benzoic acid. The solution was mixed evenly by stirring efficiently and it was ensured that no 4-(phenylethynyl) benzoic acid was precipitated, and finally 50 μM 4-(phenylethynyl) benzoic acid was prepared.
The control solution was the MES-KCl buffer containing 0.05% DMSO and 0.5% Tween-80.
Abaxial epidermal strips of tomato were firstly peeled from washed leaves, then immersed in MES-KCl buffer (10 mM MES, 50 mM KCl, pH 6.15) under light at 28° C. to induce stomatal opening. After 2 hours, abaxial epidermal strips of tomato were treated with the control solution (MES-KCl buffer with 0.05% DMSO and 0.5% Tween-80) and 50 μM 4-(Phenylethynyl) benzoic acid treatment solution (MES-KCl buffer with 50 μM 4-(Phenylethynyl) benzoic acid, 0.05% DMSO and 0.5% Tween-80) for 3 hours, respectively. […] Widths and lengths of stomata were measured and the aperture ratios (width:length) were calculated. […]

Q: Which results are given for O=C(O)c1ccc(C#Cc2ccccc2)cc1 [4-(Phenylethynyl) benzoic acid]?
A: tomato seeds germination (in words) ([1]; compared to the control): significantly inhibited the germination process and reduced the germination rate; Germination potential/% (48 h) ([1]; Tomato, 48 h, control 20.83 ± 1.90): 0.00 ± 0.00 b %; Ultimate germination rate/% ([1]; Tomato, control 88.75 ± 6.25): 10.41 ± 2.88 b %; germination of Arabidopsis seeds (in words) ([2]; 10 μM and 50 μM, 50 μM exhibited a stronger effect): significantly slowed down the germination; Germination potential/% (48 h) ([2]; Arabidopsis, 1 μM): 37.50 ± 7.50 a %; Ultimate germination rate/% ([2]; Arabidopsis, 1 μM): 92.33 ± 0.29 a %; decrease in germination potential ([2]; Arabidopsis, 10 μM): > 20%; Germination potential/% (48 h) ([2]; Arabidopsis, 10 μM): 14.53 ± 6.40 b %; Ultimate germination rate/% ([2]; Arabidopsis, 10 μM): 85.24 ± 7.41 a %; germination rate reduction ultimately ([2]; Arabidopsis, 50 μM): > 80%; Ultimate germination rate/% ([2]; Arabidopsis, 50 μM): 2.30 ± 3.98 b %; rice radicle elongation (in words) ([3]; 50 μM and 200 μM, relative to their controls, 200 μM significantly better than 50 μM): significantly inhibited rice radicle elongation; activity at 50 µM ([3]; Oryza sativa, rice, 50 μM, control 0.05% DMSO, read-out: radicle length, % of control treatment): 48.2%; activity at 200 µM ([3]; Oryza sativa, rice, 200 μM, control 0.2% DMSO, read-out: radicle length, % of control treatment): 20.3%; aperture ratio (width:length) (in words) [4]: significantly reduced; stomata aperture (in words) [4]: significantly reduced
